Test results as given in patent US11033535B2, “Oxadiazoles and thiadiazoles as TGF-β inhibitors” (Southern Research Institute, priority 2017, dated 2021).

Target: (Homo sapiens, UniProt P07996)
Experiment: Secondary Assay, inhibitory activity of thiadiazole and oxadiazole analogs as TGF-beta inhibitors
Format: biochemical
Settings: Table I
Experimental: A summary of the inhibitory activity of representative thiadiazole analogs (Tables i and ii) and oxadiazole analogs (Table ii) is shown below.
For initial screening, an ELISA-based screening assay was used in which purified human platelet TSP-1 was incubated with compounds and then incubated with recombinant latent TGF-β1 (purchased from R&D Systems). Activity is measured in a commercially available ELISA which detects only active TGF-β (R &D Systems). Activity in the presence of compounds is compared to activity in TSP-1+latent TGF-β samples without inhibitory compounds (Lu et al. (2016) Am J Pathol 186:678-690).
To specifically assess activity of compounds in liver cell specific assays, two different assays were used. In the first, human hepatic stellate cells were incubated overnight in low serum media to condition the media with secreted latent TGF-β. Purified TSP1 either pre-incubated with compounds or not will be added to cultures and then conditioned media harvested to assess TGF-β biological activity using the R&D Systems ELISA as above. Hepatic stellate cells will be purchased from commercial sources. Although hepatic stellate cells are the primary drivers of liver fibrosis, conditions which drive liver fibrosis can induce hepatocyte TSP-1 expression which can then have paracrine effects on controlling TGF-β activation in hepatic stellate cells. Furthermore, TGF-β can negatively impact hepatocyte regeneration following injury. Therefore, the ability of compounds to block TSP-1 activation of latent TGF-β will also be assessed in cultured primary human hepatocytes following the protocol described for the hepatic stellate cells. Similar approaches have successfully been used to screen compounds which inhibit human myeloma cell derived latent TGF-β activation by TSP-1 (Lu et al. (2016) Am J Pathol 186:678-690).

Sequence of (Homo sapiens, UniProt P07996) (P07996 whole entry): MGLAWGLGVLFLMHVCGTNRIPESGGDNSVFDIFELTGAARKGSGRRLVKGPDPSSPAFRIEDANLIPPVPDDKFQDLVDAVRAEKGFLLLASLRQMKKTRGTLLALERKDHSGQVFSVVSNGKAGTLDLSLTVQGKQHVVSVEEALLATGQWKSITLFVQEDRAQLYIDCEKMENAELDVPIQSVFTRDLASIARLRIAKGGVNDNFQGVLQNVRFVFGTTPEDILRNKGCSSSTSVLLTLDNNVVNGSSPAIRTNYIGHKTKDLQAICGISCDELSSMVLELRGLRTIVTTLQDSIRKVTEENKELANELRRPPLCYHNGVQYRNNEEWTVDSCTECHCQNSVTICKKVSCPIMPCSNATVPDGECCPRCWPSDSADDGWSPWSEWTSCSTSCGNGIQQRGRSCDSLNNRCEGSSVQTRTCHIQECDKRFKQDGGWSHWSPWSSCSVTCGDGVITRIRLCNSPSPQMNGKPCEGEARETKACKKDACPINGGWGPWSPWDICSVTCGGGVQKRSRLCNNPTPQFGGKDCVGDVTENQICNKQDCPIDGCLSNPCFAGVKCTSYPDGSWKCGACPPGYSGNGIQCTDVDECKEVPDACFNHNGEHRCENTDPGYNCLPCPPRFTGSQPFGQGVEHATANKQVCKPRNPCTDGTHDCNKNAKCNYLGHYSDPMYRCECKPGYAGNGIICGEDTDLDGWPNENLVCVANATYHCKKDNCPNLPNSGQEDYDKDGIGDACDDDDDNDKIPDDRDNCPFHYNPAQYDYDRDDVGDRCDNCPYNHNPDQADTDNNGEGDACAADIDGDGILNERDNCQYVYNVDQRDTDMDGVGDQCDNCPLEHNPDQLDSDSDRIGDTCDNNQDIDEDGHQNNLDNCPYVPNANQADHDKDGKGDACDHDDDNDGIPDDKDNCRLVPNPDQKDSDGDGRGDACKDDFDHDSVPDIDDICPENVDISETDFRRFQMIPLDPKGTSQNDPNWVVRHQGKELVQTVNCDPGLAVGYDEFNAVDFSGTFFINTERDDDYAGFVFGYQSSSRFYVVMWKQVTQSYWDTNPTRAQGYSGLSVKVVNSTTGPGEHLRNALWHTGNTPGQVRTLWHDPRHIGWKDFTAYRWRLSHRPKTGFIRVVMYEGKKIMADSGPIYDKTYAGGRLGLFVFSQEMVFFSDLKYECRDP

SMILES | IC50 [nM]
CNCc1ccc(C[C@H](NC(C)=O)c2nnc(-c3cccc(OC(F)(F)F)c3)s2)cc1 [Compound 42140, N-(2-(4-((methylamino)methyl)phenyl)-1-(5-(3-(trifluoromethoxy)phenyl)-1,3,4-thiadiazol-2-yl)ethyl)acetamide] | 51
CC(=O)N[C@@H](Cc1ccc(CN(C)C)cc1)c1nnc(-c2cccc(OC(F)(F)F)c2)s1 [Compound 42320, N-(2-(4-((dimethylamino)methyl)phenyl)-1-(5-(3-(trifluoromethoxy)phenyl)-1,3,4-thiadiazol-2-yl)ethyl)acetamide] | 2
